How the values were obtained:
Assay type in all cases: functional
[1] = system: Tetranychus urticae; test: Acaricidal against Tetranychus urticae (two-spotted spider mite) assessed as mortality at 3.1 ppm
[2] = system: Tetranychus urticae; test: Acaricidal against Tetranychus urticae (two-spotted spider mite) assessed as mortality at 12.5 ppm
[3] = system: Tetranychus urticae; test: Acaricidal against Tetranychus urticae (two-spotted spider mite) assessed as mortality at 200 ppm
[4] = system: Tetranychus urticae; test: Acaricidal against Tetranychus urticae (two-spotted spider mite) assessed as mortality at 50 ppm
[5] = system: Tetranychus urticae; test: Acaricidal against Tetranychus urticae (two-spotted spider mite) assessed as mortality at 500 ppm

| Structure (SMILES) | Activity [1] | Activity [2] | Activity [3] | Activity [4] | Activity [5] |
| --- | --- | --- | --- | --- | --- |
| CCc1nn(C)c(C(=O)NCc2cccnc2)c1Cl | 0% | 0% | 0% | 0% | 30% |
| CCCc1ccc(CNC(=O)c2c(Cl)c(CC)nn2C)cn1 | 0% | 0% | 80% | 30% | 100% |
| CCc1nn(C)c(C(=O)NCc2ccc(C(C)C)nc2)c1Cl | 0% | 30% | 100% | 100% | 100% |
| CCCCc1ccc(CNC(=O)c2c(Cl)c(CC)nn2C)cn1 | 0% | 30% | 100% | 100% | 100% |
| CCc1nn(C)c(C(=O)NCc2ccc(CC(C)C)nc2)c1Cl | 0% | 30% | 100% | 100% | 100% |
| CCc1nn(C)c(C(=O)NCc2ccc(C(C)(C)C)nc2)c1Cl | 80% | 100% | 100% | 100% | 100% |
| CCc1nn(C)c(C(=O)NCc2cnccc2C(C)(C)C)c1Cl | 100% | 100% | 100% | 100% | 100% |
| CCCCCc1ccc(CNC(=O)c2c(Cl)c(CC)nn2C)cn1 | 0% | 100% | 100% | 100% | 100% |
| CCc1nn(C)c(C(=O)NCc2ccc(CC(C)(C)C)nc2)c1Cl | 30% | 100% | 100% | 100% | 100% |
| CCCOc1ccc(CNC(=O)c2c(Cl)c(CC)nn2C)cn1 | 0% | 0% | 30% | 30% | 80% |
| CCc1nn(C)c(C(=O)NCc2ccc(OC(C)C)nc2)c1Cl | 0% | 30% | 100% | 80% | 100% |
| CCc1nn(C)c(C(=O)NCc2ccc(OC(C)C(F)(F)F)nc2)c1Cl (stereo not given) | 30% | 100% | 100% | 100% | 100% |
| CCc1nn(C)c(C(=O)NCc2ccc(OCC(F)(F)C(F)F)nc2)c1Cl | 30% | 80% | 100% | 100% | 100% |
| CCc1nn(C)c(C(=O)NCc2ccc(OCC(F)(F)C(F)(F)F)nc2)c1Cl | 30% | 80% | 100% | 100% | 100% |
| CCCCOc1ccc(CNC(=O)c2c(Cl)c(CC)nn2C)cn1 | 30% | 30% | 100% | 80% | 100% |
| CCc1nn(C)c(C(=O)NCc2ccc(OCCCC(F)(F)F)nc2)c1Cl | 30% | 80% | 100% | 100% | 100% |
| CCc1nn(C)c(C(=O)NCc2ccc(OCC(F)(F)C(F)(F)C(F)(F)F)nc2)c1Cl | 80% | 100% | 100% | 100% | 100% |

Source: ChEMBL document CHEMBL3045419, “Synthesis and Acaricidal Activity of N-(3-Pyridylmethyl)pyrazolecarboxamide Derivatives” (1997)
